Measurements reported in ChEMBL document CHEMBL1129391, “Potent and selective thrombin inhibitors incorporating the constrained arginine mimic l-3-piperidyl(N-guanidino)alanine at P1” (J Med Chem, 1996).

Assays:
Prothrombin = Prothrombin (Homo sapiens, UniProt P00734); assay: Compound was evaluated for inhibition of amidolytic activity for chromogenic substrate thrombin […].
Coagulation factor X = Coagulation factor X (Homo sapiens, UniProt P00742); assay: Compound was evaluated for inhibition of amidolytic activity for chromogenic substrate Coagulation factor X
Trypsin II = biological target: T1, Trypsin II (Bos taurus, UniProt Q29463); assay: Compound was evaluated for inhibition of amidolytic activity for chromogenic substrate trypsin
T1 sequence (Q29463 whole entry): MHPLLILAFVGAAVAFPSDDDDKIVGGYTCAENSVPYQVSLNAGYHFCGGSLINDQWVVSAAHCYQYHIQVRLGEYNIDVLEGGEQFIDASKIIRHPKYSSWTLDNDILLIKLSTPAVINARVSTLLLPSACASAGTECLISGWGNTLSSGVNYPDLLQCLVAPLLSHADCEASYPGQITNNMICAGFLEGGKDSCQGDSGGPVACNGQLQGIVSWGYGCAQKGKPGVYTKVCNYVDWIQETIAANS

Sequence of Coagulation factor X (P00742 41-179 limits assumed): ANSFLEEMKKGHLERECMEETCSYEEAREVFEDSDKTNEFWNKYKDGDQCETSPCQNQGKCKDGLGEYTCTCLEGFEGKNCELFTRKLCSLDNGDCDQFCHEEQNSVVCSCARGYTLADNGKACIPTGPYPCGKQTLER
Sequence of Coagulation factor X (P00742 235-488 limits assumed): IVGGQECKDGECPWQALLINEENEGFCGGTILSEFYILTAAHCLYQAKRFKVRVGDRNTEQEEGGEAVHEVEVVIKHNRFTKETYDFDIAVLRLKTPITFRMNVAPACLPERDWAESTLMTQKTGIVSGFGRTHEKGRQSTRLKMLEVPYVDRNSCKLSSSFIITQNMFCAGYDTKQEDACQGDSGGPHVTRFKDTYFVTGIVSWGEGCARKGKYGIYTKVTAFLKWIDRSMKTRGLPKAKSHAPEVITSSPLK

SMILES	IC50 (Prothrombin) [µM]	IC50 (Coagulation factor X) [µM]	IC50 (Trypsin II) [µM]
N=C(N)NCCC[C@@H](C=O)NC(=O)CN1CCC[C@H](NS(=O)(=O)Cc2ccccc2)C1=O	0.0124	> 2.5	1.55
[H]/N=C(\N)N1CCC[C@@H](C[C@@H](C=O)NC(=O)CN2CCC[C@H](NS(=O)(=O)Cc3ccccc3)C2=O)C1	0.00067	> 25	68.4
CCCC(CCC)C(=O)N[C@@H](CC(=O)OC)C(=O)N1CCC[C@H]1C(=O)N[C@H](C=O)CCCNC(=N)N		0.301	0.0012
N=C(N)N1CCC[C@H](C[C@@H](C=O)NC(=O)CN2CCC[C@H](NS(=O)(=O)Cc3ccccc3)C2=O)C1	0.0288	> 25	60.7
N=C(N)NCCC[C@@H](C=O)NC(=O)CN1CCCC[C@H](NS(=O)(=O)Cc2ccccc2)C1=O	0.00071	0.0206	0.329
CCCC(CCC)C(=O)N[C@@H](CC(=O)OC)C(=O)N1CCC[C@H]1C(=O)N[C@H](C=O)CC1CCCN(C(=N)N)C1 (stereo in doubt; 4a)		> 2.5	0.113
CCCC(CCC)C(=O)N[C@@H](CC(=O)OC)C(=O)N1CCC[C@H]1C(=O)N[C@H](C=O)CC1CCCN(C(=N)N)C1 (stereo in doubt; 4b)		> 2.5	0.0697
N=C(N)N1CCCC(C[C@@H](C=O)NC(=O)CN2CCCC[C@H](NS(=O)(=O)Cc3ccccc3)C2=O)C1 (stereo in doubt; 6a)		> 2.5	15.1
N=C(N)N1CCCC(C[C@@H](C=O)NC(=O)CN2CCCC[C@H](NS(=O)(=O)Cc3ccccc3)C2=O)C1 (stereo in doubt; 6b)		> 25	45.8
